Source: ChEMBL document CHEMBL1201862, “PubChem BioAssay data set” (2004)
Activity calls are given as the source filed them.

Legend:
[1] = target: Bifunctional protein GlmU (Mycobacterium tuberculosis, UniProt P9WMN3); assay: Inhibitors of Mycobacterial Glucosamine-1-phosphate acetyl transferase (GlmU). Secondary screen.; design: species or system Mycobacterium tuberculosis H37Rv
Vero [2] = assay: viability of Vero cells under compound – cytotoxicity control for flavivirus capping enzyme inhibitors (AID 588742); type: functional; settings: Chlorocebus sabaeus
Vero [3] = assay: cells; type: functional, cell-based; settings: Chlorocebus sabaeus
Vero [4] = assay: cells; type: functional; settings: Chlorocebus sabaeus
Genome polyprotein = Genome polyprotein (dengue virus type 2, UniProt P29990); assay: flavivirus cap methylation enzyme inhibition – biochemical, confirmation dose response, primary screen (AID 588689); type: functional
Major prion protein = Major prion protein (Homo sapiens, UniProt P04156); type: functional, cell-based
Beta-arrestin-1 = Beta-arrestin-1 (Homo sapiens, UniProt P49407); assay: beta-arrestin/AP2 interaction blockers, potency – biochemical, cherry pick 1, beta2-adaptin appendage, flow cytometry, dose response (AID 588783); type: functional
[5] = target: T1, Polyadenylate-binding protein 1 (Homo sapiens, UniProt P11940); assay: MLLE binding blockers, Cy5 peptide tracer – biochemical, fluorescence polarization, Cy5-PAM2 peptide, secondary, miRNA deadenylation inhibitor project, dose response (AID 602260); type: functional; settings: read-out: IC50_Mean
[6] = target: T1, Polyadenylate-binding protein 1; assay: MLLE domain peptide-binding blockers, IC50 – biochemical, fluorescence polarization, FITC-PAM2 peptide, dose response (AID 602259); type: functional; settings: read-out: IC50_Mean
Protein skinhead-1 = target: T2, Protein skinhead-1 (Caenorhabditis elegans, UniProt P34707); type: functional
T2 sequence (P34707 whole entry): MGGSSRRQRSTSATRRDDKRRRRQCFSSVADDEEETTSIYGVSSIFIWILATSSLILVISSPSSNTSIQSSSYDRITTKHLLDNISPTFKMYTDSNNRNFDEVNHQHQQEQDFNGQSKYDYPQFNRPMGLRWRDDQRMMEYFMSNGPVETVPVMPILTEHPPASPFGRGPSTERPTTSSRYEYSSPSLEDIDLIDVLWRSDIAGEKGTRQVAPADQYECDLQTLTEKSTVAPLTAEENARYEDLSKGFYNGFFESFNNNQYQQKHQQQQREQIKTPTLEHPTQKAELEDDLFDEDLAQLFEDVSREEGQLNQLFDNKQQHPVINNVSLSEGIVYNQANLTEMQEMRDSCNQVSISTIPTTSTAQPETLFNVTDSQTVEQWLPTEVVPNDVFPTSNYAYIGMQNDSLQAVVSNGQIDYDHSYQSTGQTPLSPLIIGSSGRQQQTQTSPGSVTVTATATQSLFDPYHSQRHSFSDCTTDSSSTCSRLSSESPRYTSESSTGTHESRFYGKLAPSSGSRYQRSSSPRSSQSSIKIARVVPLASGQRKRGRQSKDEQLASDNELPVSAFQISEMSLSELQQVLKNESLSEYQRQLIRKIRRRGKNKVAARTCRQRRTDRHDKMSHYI

[7] = viability loss in HeLa cells – cytotoxicity control for MgcRacGAP inhibitor project, dose response (AID 624300); type: functional
[8] = target: T3, Rac GTPase-activating protein 1 (Homo sapiens, UniProt Q9H0H5); assay: blockers of MgcRacGAP-driven Rac1 GTP hydrolysis – biochemical, ADP Hunter fluorescence, primary and confirmatory, confirmation (AID 624330); type: functional
T3 sequence (Q9H0H5 whole entry): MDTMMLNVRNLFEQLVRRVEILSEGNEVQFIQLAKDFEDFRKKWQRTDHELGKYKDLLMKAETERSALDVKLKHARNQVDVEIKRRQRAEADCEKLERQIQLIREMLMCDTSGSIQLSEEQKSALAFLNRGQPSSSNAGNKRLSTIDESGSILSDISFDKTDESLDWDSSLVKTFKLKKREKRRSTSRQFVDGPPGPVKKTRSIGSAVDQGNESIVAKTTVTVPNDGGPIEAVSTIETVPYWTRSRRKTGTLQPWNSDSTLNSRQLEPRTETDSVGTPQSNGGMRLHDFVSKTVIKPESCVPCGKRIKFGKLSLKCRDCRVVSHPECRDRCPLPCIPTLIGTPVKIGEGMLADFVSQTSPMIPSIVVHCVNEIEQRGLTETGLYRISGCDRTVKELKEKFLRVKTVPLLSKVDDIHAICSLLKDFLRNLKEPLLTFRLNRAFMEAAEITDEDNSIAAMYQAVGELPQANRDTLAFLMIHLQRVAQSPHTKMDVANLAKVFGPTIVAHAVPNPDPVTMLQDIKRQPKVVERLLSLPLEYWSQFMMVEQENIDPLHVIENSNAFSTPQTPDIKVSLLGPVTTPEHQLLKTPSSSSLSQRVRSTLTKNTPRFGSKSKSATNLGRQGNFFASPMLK

Paired box protein Pax-8 = Paired box protein Pax-8 (Homo sapiens, UniProt Q06710); assay: PAX8 transcriptional activity inhibition in RMG-I – RMG-I cells, luciferase, cherry-pick, dose response (AID 687027); type: functional, cell-based;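 further: luciferase reporter driven by Pax8 target thyroperoxidase promoter measured by SteadyGlo luminescence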
Caspase-6 = target: T4, Caspase-6 (Homo sapiens, UniProt P55212); assay: inhibition of CASP6 peptide cleavage – biochemical, VEID-R110 fluorescence, cherry-pick, dose response (AID 720632)
T4 sequence (P55212 whole entry): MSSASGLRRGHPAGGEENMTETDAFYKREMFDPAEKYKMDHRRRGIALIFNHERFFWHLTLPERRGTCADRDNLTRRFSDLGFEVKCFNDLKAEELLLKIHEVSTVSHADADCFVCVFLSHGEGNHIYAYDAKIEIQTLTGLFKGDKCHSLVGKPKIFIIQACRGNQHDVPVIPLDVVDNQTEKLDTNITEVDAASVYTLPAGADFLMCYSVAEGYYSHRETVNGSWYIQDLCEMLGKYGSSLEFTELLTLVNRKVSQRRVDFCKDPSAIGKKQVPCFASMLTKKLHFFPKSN

[9] = target: T5, Histone-lysine N-methyltransferase NSD2 (Homo sapiens, UniProt O96028); type: biochemical
T5 sequence (O96028 whole entry): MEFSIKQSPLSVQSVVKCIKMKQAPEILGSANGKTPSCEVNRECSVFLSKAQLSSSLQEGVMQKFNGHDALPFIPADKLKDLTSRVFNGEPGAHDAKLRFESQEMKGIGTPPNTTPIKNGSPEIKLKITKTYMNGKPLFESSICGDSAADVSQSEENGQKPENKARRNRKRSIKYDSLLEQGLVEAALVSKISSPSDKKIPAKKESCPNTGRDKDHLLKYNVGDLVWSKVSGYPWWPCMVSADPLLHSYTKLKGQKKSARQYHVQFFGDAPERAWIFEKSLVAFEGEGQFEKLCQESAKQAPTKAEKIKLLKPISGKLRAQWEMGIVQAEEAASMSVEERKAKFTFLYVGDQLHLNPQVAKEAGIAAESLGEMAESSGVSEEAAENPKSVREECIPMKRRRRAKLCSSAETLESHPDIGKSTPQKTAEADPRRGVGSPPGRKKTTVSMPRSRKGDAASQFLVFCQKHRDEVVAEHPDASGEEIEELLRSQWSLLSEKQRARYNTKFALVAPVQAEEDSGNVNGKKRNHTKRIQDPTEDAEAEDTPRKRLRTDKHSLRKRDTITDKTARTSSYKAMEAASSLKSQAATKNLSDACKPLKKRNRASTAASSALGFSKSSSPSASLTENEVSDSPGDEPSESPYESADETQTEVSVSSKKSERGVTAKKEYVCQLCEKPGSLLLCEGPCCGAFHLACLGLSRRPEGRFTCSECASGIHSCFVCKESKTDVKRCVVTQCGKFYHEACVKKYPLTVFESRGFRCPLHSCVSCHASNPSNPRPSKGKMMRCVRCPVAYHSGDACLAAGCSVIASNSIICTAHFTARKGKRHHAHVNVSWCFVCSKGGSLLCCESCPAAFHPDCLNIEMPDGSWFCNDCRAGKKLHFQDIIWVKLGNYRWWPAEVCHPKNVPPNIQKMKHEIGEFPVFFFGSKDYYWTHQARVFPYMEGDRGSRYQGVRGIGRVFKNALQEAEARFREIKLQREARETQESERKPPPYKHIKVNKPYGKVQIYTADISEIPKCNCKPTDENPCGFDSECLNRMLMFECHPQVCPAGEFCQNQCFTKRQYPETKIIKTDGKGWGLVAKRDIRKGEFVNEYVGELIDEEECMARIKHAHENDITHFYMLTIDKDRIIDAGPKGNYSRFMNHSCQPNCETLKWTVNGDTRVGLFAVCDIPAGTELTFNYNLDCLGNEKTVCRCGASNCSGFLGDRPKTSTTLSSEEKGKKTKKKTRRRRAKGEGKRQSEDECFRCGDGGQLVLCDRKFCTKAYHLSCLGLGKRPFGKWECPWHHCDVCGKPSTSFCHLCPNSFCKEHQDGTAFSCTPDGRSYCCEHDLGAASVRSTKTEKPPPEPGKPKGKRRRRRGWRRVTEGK

[10] = target: T6, Short transient receptor potential channel 4 (Mus musculus, UniProt Q9QUQ5); assay: SAR Analysis for the identification of selective inhibits of the transient receptor potential cation channel C4 (TRPC4): Automated Electrophysiology_2. [Related pubchem assays (depositor defined):AID2256]; type: functional
T6 sequence (Q9QUQ5 whole entry): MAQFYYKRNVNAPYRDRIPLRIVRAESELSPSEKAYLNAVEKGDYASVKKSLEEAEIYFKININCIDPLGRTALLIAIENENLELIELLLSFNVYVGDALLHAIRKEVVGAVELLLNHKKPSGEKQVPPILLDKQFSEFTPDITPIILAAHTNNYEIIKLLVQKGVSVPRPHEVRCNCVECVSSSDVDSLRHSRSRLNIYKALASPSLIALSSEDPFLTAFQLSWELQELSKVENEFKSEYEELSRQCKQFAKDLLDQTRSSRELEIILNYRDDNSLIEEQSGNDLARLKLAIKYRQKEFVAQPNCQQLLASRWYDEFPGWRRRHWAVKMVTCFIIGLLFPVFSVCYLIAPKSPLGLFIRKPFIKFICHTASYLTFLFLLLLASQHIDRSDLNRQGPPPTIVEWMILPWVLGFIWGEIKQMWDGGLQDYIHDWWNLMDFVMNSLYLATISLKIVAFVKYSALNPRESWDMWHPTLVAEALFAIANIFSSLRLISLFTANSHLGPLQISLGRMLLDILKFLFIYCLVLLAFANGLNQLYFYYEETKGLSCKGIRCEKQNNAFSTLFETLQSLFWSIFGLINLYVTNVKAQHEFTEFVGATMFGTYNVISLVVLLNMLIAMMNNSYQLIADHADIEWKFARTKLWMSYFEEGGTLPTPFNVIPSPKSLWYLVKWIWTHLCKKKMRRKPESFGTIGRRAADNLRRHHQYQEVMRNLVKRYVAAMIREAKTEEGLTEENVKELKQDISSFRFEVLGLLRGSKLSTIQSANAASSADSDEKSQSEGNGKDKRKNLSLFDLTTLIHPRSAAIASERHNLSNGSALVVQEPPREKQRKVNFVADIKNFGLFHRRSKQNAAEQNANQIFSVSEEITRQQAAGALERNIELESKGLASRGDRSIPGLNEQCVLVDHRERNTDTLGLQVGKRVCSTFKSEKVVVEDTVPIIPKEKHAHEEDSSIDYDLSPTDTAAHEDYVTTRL

[11] = target: T6, Short transient receptor potential channel 4; assay: mouse TRPC4 block via Gq-coupled stimulation – cell-based, acetylcholine stimulus, HEK293 TRPC4, Fluo-4, SAR follow-up (AID 492996); type: functional
[12] = target: T6, Short transient receptor potential channel 4; assay: SAR Analysis for the identification of selective inhibitors of the transient receptor potential cation channel C4 (TRPC4): TRPC4 Serotonin Receptor CRC MPD assay. [Related pubchem assays (depositor defined):AID2247, AID2256]; type: functional
[13] = target: Short transient receptor potential channel 6 (Mus musculus, UniProt Q61143); assay: mouse TRPC6 channel blockers, concentration series – HEK293 cells, membrane potential dye, IC50, selectivity assay for selective TRPC4 inhibitor project, dose response (AID 492987); type: functional, cell-based
[14] = target: T6, Short transient receptor potential channel 4; assay: potency of mouse TRPC4 calcium flux blockers – cell-based, HEK293 TRPC4/mu-opioid, DAMGO stimulus, Fluo-4, dose response (AID 492994); type: functional
[15] = target: Voltage-gated inwardly rectifying potassium channel KCNH2 (Homo sapiens, UniProt Q12809); settings: Potency;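 further: confirmatory quantitative high-throughput screen measuring inhibition of hERG channel activity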

O=c1oc2ccccc2c(O)c1[C@H]1c2ccc(O)cc2Oc2c1c(=O)oc1ccccc21
active: IC50 [1] 117 µM | CC50 (Vero [2]) > 40 µM | IC50 (Vero [3]) > 25 µM | CC50 (Vero [4]) > 25 µM | IC50 (Genome polyprotein) 80.7 µM | IC50 (Major prion protein) 9.01 µM
inactive: IC50 (cells) 124 µM

O=C1C(Br)=C(N2CCN(CCOCCO)CC2)C(=O)c2c(O)ccc(O)c21
inactive: IC50 [5] > 66 µM | IC50 [6] 38.7 µM | IC50 (Protein skinhead-1) 79.6 µM
active: CC50 (Vero [2]) 8.58 µM | IC50 (Beta-arrestin-1) 7.46 µM | IC50 (Genome polyprotein) 5.11 µM | CC50 [7] 12.6 µM | IC50 [8] 34.8 µM | AC50 (Paired box protein Pax-8) 7.03 µM | AC50 (Caspase-6) 0.343 µM | AC50 [9] 7.21 µM

Cc1cc(N2CCCC2)nc2ccc(F)cc12
active: IC50 [10] 3.94 µM | IC50 [11] 17.4 µM | IC50 [12] 1.41 µM | IC50 [13] 7.76 µM | IC50 [14] 0.93 µM

C=CCN1CC[C@]23c4c5ccc(O)c4O[C@@H]2/C(=N/N=C2\CC[C@@]4(O)C6Cc7ccc(O)c8c7[C@@]4(CCN6CC=C)[C@@H]2O8)CC[C@@]3(O)C1C5
inconclusive: AC50 [15] 20 µM
